From PMC11249646, “Small-Molecule Disruptors of the Interaction between Calcium- and Integrin-Binding Protein 1 and Integrin αIIbβ3 as Novel Antiplatelet Agents” (ACS Pharmacology & Translational Science, 2024)
Where two headings read alike, the source gives them in different places.

Tests used:
Assay type in all cases: binding
[1] = molecular target: T1, CIB1 and αIIb interaction (GST-CIB1 : F-αIIb peptide) (Homo sapiens, UniProt Q99828); assay: FP assay, 384-well format (screen); parameters: 384-well SCREEN Efficacy (%): concentration or dose not given beside the values; conditions: F-αIIb peptide; for 384-well SCREEN Confirm?: YES/NO; for IC50: read-out: 384-well SCREEN IC50
T1 construct: made in house; host or cells: BL-21 plus RIL cells (E. coli)
T1 sequence (Q99828 1-191): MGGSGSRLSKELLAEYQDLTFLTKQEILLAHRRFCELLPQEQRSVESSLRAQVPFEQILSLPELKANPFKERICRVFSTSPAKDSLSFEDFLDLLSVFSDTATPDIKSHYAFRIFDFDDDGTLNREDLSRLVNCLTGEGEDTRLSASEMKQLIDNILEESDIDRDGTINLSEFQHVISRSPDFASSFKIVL

[2] = molecular target: T2, GST-CIB1 : F-scrambled peptide (Homo sapiens, UniProt Q99828); assay: FP scrambled-peptide counter screen, 384-well format; conditions: F-scrambled peptide; for 384-well COUNTERSCREEN Confirm?: *: Curve in opposite direction; for IC50: read-out: 384-well COUNTERSCREEN IC50
T2 construct: made in house; host or cells: BL-21 plus RIL cells (E. coli)
T2 sequence (Q99828 1-191): T1 sequence (Q99828 1-191)

[3] = molecular target: T3, CIB1 and αIIb interaction (CIB1-GST : F-αIIb peptide) (Homo sapiens, UniProt Q99828); assay: FP assay, 1536-well qHTS format (primary and confirmatory screen); conditions: for CONFIRMATORY SCREEN Confirm?: YES/NO call; for CONFIRMATORY SCREEN Curve Class: qHTS curve class; for CONFIRMATORY SCREEN Curve Class / Curve Class: negative sign = inhibitory curve; for CONFIRMATORY SCREEN Efficacy (%) / Efficacy (%): negative = inhibition
T3 construct: made in house; host or cells: BL-21 plus RIL cells (E. coli)
T3 sequence (Q99828 1-191): T1 sequence (Q99828 1-191)

[4] = molecular target: T2, GST-CIB1 : F-scrambled peptide; assay: FP scrambled-peptide counter screen, 1536-well format; conditions: scrambled-peptide counterscreen; for COUNTERSCREEN Confirm?: YES/NO call; for COUNTERSCREEN Curve Class: qHTS curve class; for IC50: read-out: COUNTERSCREEN IC50
[5] = confirmatory screen, read-out: CONFIRMATORY SCREEN IC50
[6] = qHTS primary screen hits, Table S2
[7] = qHTS primary screen hits, Table S2, several classes where COUNT > 1
[8] = qHTS primary screen hits, Table S2, read-out: IC50
[9] = qHTS FP screen hits, Table S2, read-out: IC50

SMILES	384-well SCREEN Efficacy (%) [1] [%]	384-well SCREEN Confirm? [1]	IC50 [1] [µM]	384-well COUNTERSCREEN Efficacy (%) [2] [%]	384-well COUNTERSCREEN Confirm? [2]	IC50 [2] [µM]	CONFIRMATORY SCREEN Confirm? ([3]; confirmatory screen)	CONFIRMATORY SCREEN Curve Class ([3]; confirmatory screen)	CONFIRMATORY SCREEN Efficacy (%) ([3]; confirmatory screen)	IC50 [3, 5] [µM]	Efficacy (%) [3, 6] [%]	Curve Class [3, 7]	IC50 [3, 8] [µM]	COUNTERSCREEN Efficacy (%) [4] [%]	COUNTERSCREEN Confirm? [4]	COUNTERSCREEN Curve Class [4]	Efficacy (%) ([3]; qHTS FP screen hits, Table S2)	Curve Class ([3]; qHTS FP screen hits, Table S2, one class per curve where COUNT > 1)	IC50 [3, 9] [µM]	IC50 [4] [µM]
CC(=O)N1CCN(c2ccc(OCc3nn(C)c(C)c3-c3cccc4c(CCCOc5cccc6ccccc56)c(C(=O)O)n(Cc5cccnc5)c34)cc2)CC1 [NCGC00347174-02]	52	YES	28.2	15	YES	> 120	YES	-2.2	-77	22.4	-31	-2.4	34.1	-33	YES	4	–	–	–	–
O=C(O)c1cccc(CN2C(=O)/C(=C(\c3ccccc3)c3ccc(Cl)cc3)c3ccccc32)c1 [NCGC00378823-01]	70	YES	63.4	0	YES	> 120	YES	-2.2	-63	44.7	–	–	–	-27	YES	4	-34	-1.2	39.8	–
Cc1cc(SCc2sc(-c3ccc(Cl)c(Cl)c3)nc2C)ccc1OCc1nnn[nH]1.O=C(O)C(F)(F)F [NCGC00344871-01]	42	–	> 120	167	–	44.7	YES	-1.2	-63	15.8	-38	-1.2	17.8	204	YES	–	–	–	–	79.4
O=C(O)C(F)(F)F.OCc1ccc(-c2ccc3ncnc(NCc4cccs4)c3c2)o1 [NCGC00189276-01]	72	YES	12.6	34	YES	> 120	YES	-1.2	-62	–	-57	-1.2	25.1	0	YES	4	–	–	–	–
COC(=O)[C@]12CCC(C)(C)C[C@H]1[C@H]1C(=O)C=C3[C@@]4(C)C=C(C#N)C(=O)C(C)(C)[C@@H]4CC[C@@]3(C)[C@]1(C)CC2 [NCGC00186460-01]	77	YES	3.5	29	YES	> 120	YES	-1.2	-71	7.1	–	–	–	-36	YES	-1.2	-24	–	10.8	14.1
CCOC(=O)N1CCN([N+]([O-])=NOc2ccc([N+](=O)[O-])cc2[N+](=O)[O-])CC1 [NCGC00165815-03]	61	YES	1.8	48	YES	15.8	YES	-1.2	-62	6.3	–	–	–	-56	YES	-2.2	–	–	–	44.7
COc1nn(CSP(=S)(OC)OC)c(=O)s1 [NCGC00163724-03]	80	YES	15.8	60	YES	> 120	YES	-1.4	-47	20	-47	-1.2	58.6	0	YES	4	–	–	–	–
